Experimental data taken from PMC4171110, “BdcA, a Protein Important for Escherichia coli Biofilm Dispersal, Is a Short-Chain Dehydrogenase/Reductase that Binds Specifically to NADPH” (PLoS ONE, 2014).

T1: BdcA (Escherichia coli, UniProt P39333)
T1 construct: full-length; N-terminal Thio6-His6 tag removed with TEV protease; expressed in E. coli BL21-Gold (DE3)
T1 sequence (P39333 1-237): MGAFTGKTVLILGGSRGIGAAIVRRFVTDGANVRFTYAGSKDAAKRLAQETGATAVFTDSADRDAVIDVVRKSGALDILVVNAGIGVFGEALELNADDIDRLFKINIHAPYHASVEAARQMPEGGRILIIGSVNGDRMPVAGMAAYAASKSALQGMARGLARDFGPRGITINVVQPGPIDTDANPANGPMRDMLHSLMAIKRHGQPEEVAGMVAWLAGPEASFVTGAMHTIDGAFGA


What was measured:
BdcA [1] = biological target: T1, BdcA; test: isothermal titration calorimetry; assay type: binding
Description: isothermal titration calorimetry on BdcA

BdcA [2] = biological target: T1, BdcA; test: differential scanning fluorimetry (SYPRO Orange); assay type: binding; conditions: 20 mM HEPES pH 7.5; 8 µM protein, 160 µM ligand
Description: differential scanning fluorimetry (SYPRO Orange) on BdcA

[3] = biological target: the molecule itself; test: SEC; Superdex 75 26/60, 20 mM Tris pH 7.5, 100 mM NaCl, 0.5 mM TCEP; elution volume compared with MW standards (158, 44, 17 kDa)

| Molecule | Kd (BdcA [1]) [µM] | ΔTm (°C) (BdcA [2]) | stoichiometry N [3] |
| --- | --- | --- | --- |
| NC(=O)C1=CN([C@@H]2O[C@H](COP(=O)(O)OP(=O)(O)OC[C@H]3O[C@@H](n4cnc5c(N)ncnc54)[C@H](OP(=O)(O)O)[C@@H]3O)[C@@H](O)[C@H]2O)C=CC1 [NADPH] | 25.9 ± 4.1 | 3.1 | – |
| NC(=O)c1ccc[n+]([C@@H]2O[C@H](COP(=O)(O)OP(=O)(O)OC[C@H]3O[C@@H](n4cnc5c(N)ncnc54)[C@H](OP(=O)(O)O)[C@@H]3O)[C@@H](O)[C@H]2O)c1 [NADP] | – | 1.0 | – |
| BdcA (enzyme, E. coli, UniProt P39333 1-237, looked up, BdcA (YjgI), short-chain dehydrogenase/reductase of E. coli, full-length bdcA gene in the RP1B vector; monomer MW 24.9 kDa as printed; Tag removed with TEV protease; Homodimer in the crystal and in solution; also called YjgI; BcdA; source: E. coli BL21-Gold (DE3), purified (HisTrap, TEV cleavage, Ni-NTA, SEC); not shown: Thio6-His6, N-terminal, cleaved) MGAFTGKTVLILGGSRGIGAAIVRRFVTDGANVRFTYAGSKDAAKRLAQETGATAVFTDSADRDAVIDVVRKSGALDILVVNAGIGVFGEALELNADDIDRLFKINIHAPYHASVEAARQMPEGGRILIIGSVNGDRMPVAGMAAYAASKSALQGMARGLARDFGPRGITINVVQPGPIDTDANPANGPMRDMLHSLMAIKRHGQPEEVAGMVAWLAGPEASFVTGAMHTIDGAFGA | – | – | 2 |
